# In ChEMBL document CHEMBL1212738, “Phenotypic and genotypic characterization of Enterobacteriaceae with decreased susceptibility to carbapenems: results from large hospital-based surveillance studies in China” (2010):
# How the values were obtained:
# [1] = system: Klebsiella pneumoniae; test: Antimicrobial activity against carbapenem-resistant Klebsiella pneumoniae SZ61 deficient in TEM-1, SHV-1a, CMY-2, ompK35/36 by CLSI method; assay type: functional
# [2] = system: Citrobacter freundii; test: Antimicrobial activity against Citrobacter freundii SZ62 expressing IMP-4, TEM-1, CMY-2, qnrS1, aac(6')-Ib-cr by CLSI method; assay type: functional
# [3] = system: Klebsiella pneumoniae; test: Antimicrobial activity against carbapenem-resistant Klebsiella pneumoniae PU8 deficient in SHV-11, DHA-1, aac(6')-Ib-cr, ompK35/36 by CLSI method; assay type: functional
# [4] = system: Escherichia coli; test: Antimicrobial activity against Escherichia coli PU101T expressing CMY-2 by CLSI method; assay type: functional
# [5] = system: Klebsiella pneumoniae; test: Antimicrobial activity against Klebsiella pneumoniae WH76 expressing IMP-4, TEM-1, SHV-14, CTX-M-3, qnrS1 by CLSI method; assay type: functional
# [6] = system: Escherichia coli; test: Antimicrobial activity against Escherichia coli PU60T expressing CMY-2 by CLSI method; assay type: functional
# [7] = system: Klebsiella aerogenes; test: Antimicrobial activity against carbapenem-resistant Enterobacter aerogenes WH85 deficient in TEM-1, CTX-M-3, ompC/F by CLSI method; assay type: functional
# [8] = system: Klebsiella aerogenes; test: Antimicrobial activity against carbapenem-resistant Enterobacter aerogenes PU41 deficient in CTX-M-14, DHA-1, qnrS1, ompC DEc, ompF by CLSI method; assay type: functional
# [9] = system: Escherichia coli; test: Antimicrobial activity against Escherichia coli ZJ86T expressing KPC-2 by CLSI method; assay type: functional
# [10] = system: Klebsiella pneumoniae; test: Antimicrobial activity against carbapenem-resistant Klebsiella pneumoniae SX67 deficient in SHV-2, CTX-M-14, DHA-1, qnrB6/S1, aac(6')-Ib-cr, ompK35/36 by CLSI method; assay type: functional
# [11] = system: Citrobacter freundii; test: Antimicrobial activity against Citrobacter freundii SZ63T expressing IMP-4, qnrS1by CLSI method; assay type: functional
# [12] = system: Klebsiella pneumoniae; test: Antimicrobial activity against carbapenem-resistant Klebsiella pneumoniae ZJ18 deficient in KPC-2, SHV-28, DHA-1, ompK35 by CLSI method; assay type: functional
# [13] = system: Klebsiella pneumoniae; test: Antimicrobial activity against carbapenem-resistant Klebsiella pneumoniae XJ81 deficient in TEM-1, SHV-12, DHA-1, aac(6')-Ib, ompK35/36 by CLSI method; assay type: functional
# [14] = system: Escherichia coli; test: Antimicrobial activity against Escherichia coli C600 transconjugant WH77T expressing IMP-4, TEM-1, CTX-M-3, qnrS1 by CLSI method
# [15] = system: Enterobacter cloacae; test: Antimicrobial activity against carbapenem-resistant Enterobacter cloacae SZ92 deficient in IMP-4, TEM-1, CTX-M-14, DHA-1, qnrB10/B4-like, aac(6')-Ib, ompC by CLSI method; assay type: functional
# [16] = system: Escherichia coli; test: Antimicrobial activity against Escherichia coli ZJ87 expressing KPC-2, TEM-1, ompC by CLSI method; assay type: functional
# [17] = system: Klebsiella pneumoniae; test: Antimicrobial activity against Klebsiella pneumoniae FZ49T expressing IMP-8, TEM-1, CTX-M-14, qnrB2, aac(6')-Ib by CLSI method; assay type: functional
# [18] = system: Enterobacter cloacae; test: Antimicrobial activity against carbapenem-resistant Enterobacter cloacae RJ94 deficient in IMP-4, TEM-1, CTX-M-3, ompC by CLSI method; assay type: functional
# [19] = system: Escherichia coli; test: Antimicrobial activity against Escherichia coli HX74T expressing CTX-M-3 by CLSI method; assay type: functional
# [20] = system: Citrobacter freundii; test: Antimicrobial activity against Citrobacter freundii RJ78 expressing CMY-2, qnrA1, aac(6')-Ib-cr, ompC by CLSI method; assay type: functional
# [21] = system: Klebsiella pneumoniae; test: Antimicrobial activity against Klebsiella pneumoniae ZJ68T expressing CTX-M-15 by CLSI method; assay type: functional
# [22] = system: Escherichia coli; test: Antimicrobial activity against carbapenem-resistant Escherichia coli HX74 deficient in TEM-1, CTX-M-14, CTX-M-3, aac(6')-Ibcr, ompC/F by CLSI method; assay type: functional
# [23] = system: Escherichia coli; test: Antimicrobial activity against Escherichia coli C600 transconjugant WH76T expressing IMP-4, TEM-1, CTX-M-3, qnrS1 by CLSI method
# [24] = system: Klebsiella pneumoniae; test: Antimicrobial activity against carbapenem-resistant Klebsiella pneumoniae ZJ71 deficient in KPC-2, TEM-1, SHV-11, CTX-M-14, ompK35 by CLSI method; assay type: functional
# [25] = system: Klebsiella pneumoniae; test: Antimicrobial activity against Klebsiella pneumoniae ZJ71T expressing KPC-2 by CLSI method; assay type: functional
# [26] = system: Escherichia coli; test: Antimicrobial activity against carbapenem-resistant Escherichia coli PU43 deficient in TEM-1, CTX-M-14, aac(6')-Ib, ompC/F by CLSI method; assay type: functional
# [27] = system: Klebsiella pneumoniae; test: Antimicrobial activity against carbapenem-resistant Klebsiella pneumoniae FZ49 deficient in IMP-8, TEM-1, SHV-11, CTX-M-14, qnrB2, aac(6')-Ib, ompK35/36 by CLSI method; assay type: functional
# [28] = system: Escherichia coli; test: Antimicrobial activity against Escherichia coli C600 transconjugant GZ66T expressing SHV-11, DHA-1 by CLSI method
# [29] = system: Enterobacter cloacae; test: Antimicrobial activity against carbapenem-resistant Enterobacter cloacae WH103 deficient in IMP-4, TEM-1, CTX-M-3, qnrS1, ompC by CLSI method; assay type: functional
# [30] = system: Enterobacter cloacae; test: Antimicrobial activity against carbapenem-resistant Enterobacter cloacae NJ90 deficient in CTX-M-14, ompC/F by CLSI method; assay type: functional
# [31] = system: Klebsiella pneumoniae; test: Antimicrobial activity against carbapenem-resistant Klebsiella pneumoniae PU105 deficient TEM-1, SHV-12, CTX-M-14, DHA-1, qnrB10/B4-like, aac(6')-Ib-cr, ompK35/36 by CLSI method; assay type: functional
# [32] = system: Enterobacter cloacae; test: Antimicrobial activity against carbapenem-resistant Enterobacter cloacae GX24 deficient in TEM-1, DHA-1, aac(6')-Ib, ompC by CLSI method; assay type: functional
# [33] = system: Klebsiella pneumoniae; test: Antimicrobial activity against Klebsiella pneumoniae CY1T expressing SHV-11, DHA-1 by CLSI method; assay type: functional
# [34] = system: Escherichia coli; test: Antimicrobial activity against carbapenem-resistant Escherichia coli PU102 deficient in TEM-1, CTX-M-14, CMY-2, aac(6')-Ib, ompC DEc, ompF by CLSI method; assay type: functional
# [35] = system: Klebsiella pneumoniae; test: Antimicrobial activity against Klebsiella pneumoniae ZJ99 expressing KPC-2, CTX-M-3, qnrS1, ompK35 DE by CLSI method; assay type: functional
# [36] = system: Klebsiella pneumoniae; test: Antimicrobial activity against carbapenem-resistant Klebsiella pneumoniae GZ84 deficient in SHV-11, aac(6')-Ib-cr, ompK35 by CLSI method; assay type: functional
# [37] = system: Klebsiella pneumoniae; test: Antimicrobial activity against carbapenem-resistant Klebsiella pneumoniae CY75 deficient in SHV-11, DHA-1, ompK35/36 by CLSI method; assay type: functional
# [38] = system: Enterobacter cloacae; test: Antimicrobial activity against carbapenem-resistant Enterobacter cloacae NJ88 deficient in CTX-M-14, ompC/F by CLSI method; assay type: functional
# [39] = system: Klebsiella pneumoniae; test: Antimicrobial activity against carbapenem-resistant Klebsiella pneumoniae GZ83 deficient in SHV-11, CTX-M-14, ompK35/36 by CLSI method; assay type: functional
# [40] = system: Klebsiella pneumoniae; test: Antimicrobial activity against carbapenem-resistant Klebsiella pneumoniae PU104 deficient in TEM-1, SHV-11, CTX-M-15, qnrS1, ompK35/36 by CLSI method; assay type: functional
compound,measurement,setting,value
NCC[C@H](O)C(=O)N[C@@H]1C[C@H](N)[C@@H](O[C@H]2O[C@H](CN)[C@@H](O)[C@H](O)[C@H]2O)[C@H](O)[C@H]1O[C@H]1O[C@H](CO)[C@@H](O)[C@H](N)[C@H]1O [AMIKACIN],MIC,[1],> 256 µg/mL
same,MIC,[2],> 256 µg/mL
same,MIC,[3],8 µg/mL
same,MIC,[4],1 µg/mL
same,MIC,[5],1 µg/mL
same,MIC,[6],1 µg/mL
same,MIC,[7],1 µg/mL
same,MIC,[8],> 256 µg/mL
same,MIC,[9],32 µg/mL
same,MIC,[10],> 256 µg/mL
same,MIC,[11],> 256 µg/mL
same,MIC,[12],> 256 µg/mL
same,MIC,[13],16 µg/mL
same,MIC,[14],1 µg/mL
same,MIC,[15],1 µg/mL
same,MIC,[16],1 µg/mL
same,MIC,[17],> 256 µg/mL
same,MIC,[18],0.5 µg/mL
same,MIC,[19],2 µg/mL
same,MIC,[20],8 µg/mL
same,MIC,[21],> 256 µg/mL
same,MIC,[22],8 µg/mL
same,MIC,[23],1 µg/mL
same,MIC,[24],> 256 µg/mL
same,MIC,[25],1 µg/mL
same,MIC,[26],8 µg/mL
same,MIC,[27],> 256 µg/mL
same,MIC,[28],> 256 µg/mL
same,MIC,[29],1 µg/mL
same,MIC,[30],> 256 µg/mL
same,MIC,[31],> 256 µg/mL
same,MIC,[32],> 256 µg/mL
same,MIC,[33],> 256 µg/mL
same,MIC,[34],64 µg/mL
same,MIC,[35],0.5 µg/mL
same,MIC,[36],16 µg/mL
same,MIC,[37],2 µg/mL
same,MIC,[38],> 256 µg/mL
same,MIC,[39],> 256 µg/mL
same,MIC,[40],0.5 µg/mL
